Measured values from paper PMC4840272 (Neoplasia (New York, N.Y.), 2016).
Read-outs that look alike come from different tables or passages of the source. One block for each compound: values may come before it.

What was measured:
CL97 cells = test: cells; assay type: cell-based, human
MES-SA = test: cytotoxicity in multiple drug-resistant and cisplatin-resistant cells; assay type: cell-based
PC9/gef B4 cells = test: cells; assay type: cell-based, human; conditions: for resistance factor of PC9/gef B4 to PC9 cells: IC50 ratio, number in brackets
H1975 cells = test: cells; assay type: cell-based, human
NTUB1/P = test: cytotoxicity in multiple drug-resistant and cisplatin-resistant cells; assay type: cell-based
H1299 cells = test: cells; assay type: cell-based, human
PC9 cells = test: cells; assay type: cell-based, human
NTUB1 = test: cytotoxicity in multiple drug-resistant and cisplatin-resistant cells; assay type: cell-based
MES-SA/dx5 = test: as above; assay type: cell-based; conditions: for resistance factor: MES-SA/dx5 vs MES-SA
A549 cells = test: cells; assay type: cell-based, human
H460 cells = test: cells; assay type: cell-based, human
H460 xenograft = H460 xenograft in nude mice; assay type: in vivo; conditions: BO-1978 40 mg/kg QDx5, cisplatin 6 mg/kg every 4 days x3
CL100 cells = test: cells; assay type: cell-based, human
CL1-5 cells = test: alamarBlue in vitro cytotoxicity assay; assay type: cell-based, human
H1650 cells = test: cells; assay type: cell-based, human
CL141T cells = test: cells; assay type: cell-based, human
H1650 xenograft = H1650 xenograft in nude mice; assay type: in vivo; conditions: i.v., BO-1978 40 mg/kg, gefitinib 10 mg/kg, daily for 5 consecutive days
H1975 xenograft = H1975 xenograft in nude mice; assay type: in vivo; conditions: i.v., BO-1978 40 mg/kg, gefitinib 10 mg/kg, daily for 5 consecutive days
PC9 xenograft = PC9 xenograft in nude mice; assay type: in vivo; conditions: i.v., BO-1978 40 mg/kg, gefitinib 10 mg/kg, daily for 5 consecutive days
H1650-Luc cells = test: orthotopic lung tumor model, IVIS; assay type: in vivo, nude mice; conditions: BO-1978 40 mg/kg, gefitinib 10 mg/kg, daily for 5 consecutive days
PC9/gef B4 xenograft = PC9/gef B4 xenograft in nude mice; assay type: in vivo; conditions: i.v., BO-1978 40 mg/kg, gefitinib 10 mg/kg, daily for 5 consecutive days
CCRF-CEM = test: cytotoxicity in multiple drug-resistant and cisplatin-resistant cells; assay type: cell-based; conditions: Homo sapiens
KB/vin10 = test: as above; assay type: cell-based
CCRF/VBL = test: as above; assay type: cell-based
KB = test: as above; assay type: cell-based; conditions: Homo sapiens

Structure (SMILES): N.N.[Cl][Pt][Cl] [Cisplatin]
IC50 (CL97 cells; CL97, 72 hours, alamarBlue): 14.7 ± 0.34 µM
IC50 (MES-SA): 1.82 ± 0.66 µM
resistance factor of PC9/gef B4 to PC9 cells (PC9/gef B4 cells): 2.10
IC50 (PC9/gef B4 cells; PC9/gef B4, 72 hours, alamarBlue): 34.3 ± 1.62 µM
IC50 (H1975 cells; H1975, 72 hours, alamarBlue): 16.1 ± 4.03 µM
IC50 (NTUB1/P; NTUB1/P): 62.1 ± 15.3 µM
resistance factor (NTUB1/P; NTUB1/P vs NTUB1): 20.9 x
IC50 (H1299 cells; H1299, 72 hours, alamarBlue): 16.5 ± 0.9 µM
IC50 (PC9 cells; PC9, 72 hours, alamarBlue): 16.4 ± 3.29 µM
IC50 (NTUB1): 2.97 ± 1.43 µM
IC50 (MES-SA/dx5; MES-SA/dx5): 2.27 ± 0.73 µM
resistance factor (MES-SA/dx5): 1.25 x
IC50 (A549 cells; A549, 72 hours, alamarBlue): 31.1 ± 3.03 µM
IC50 (H460 cells; H460, 72 hours, alamarBlue): 9.94 ± 0.47 µM
body weight loss (H460 xenograft; H460 xenograft mice): approximately 12%
H460 xenograft tumor size suppressed/reduced to (H460 xenograft; i.v.): 52%
IC50 (CL100 cells; CL100, 72 hours, alamarBlue): 6.21 ± 3.64 µM
IC50 (CL1-5 cells; CL1-5, 72 hours, alamarBlue): 2.82 ± 0.28 µM
IC50 (H1650 cells; H1650, 72 hours, alamarBlue): 36.5 ± 8.14 µM
IC50 (CL141T cells; 72 hours, alamarBlue): 2.8 ± 0.36 µM

Structure (SMILES): COc1cccc2c1C(=O)c1c(O)c3c(c(O)c1C2=O)C[C@@](O)(C(=O)CO)C[C@@H]3O[C@H]1C[C@H](N)[C@H](O)[C@H](C)O1 [Doxorubicin]
IC50 (MES-SA; Homo sapiens): 0.038 ± 0.003 µM
IC50 (MES-SA/dx5; Homo sapiens, MES-SA/Dx5): 2.3 ± 0.98 µM
resistance factor (MES-SA/dx5): 60.52 x

IC50 (CL97 cells; Homo sapiens, CL97, 72 h): 24.4 ± 17.4 µM
IC50 (PC9/gef B4 cells; Homo sapiens, 72 h): 36.7 ± 20.5 µM
IC50 (H1975 cells; Homo sapiens, NCI-H1975, 72 h): 14.1 ± 2.9 µM
IC50 (H1299 cells; Homo sapiens, NCI-H1299, 72 h): 15.6 ± 7.45 µM
IC50 (PC9 cells; Homo sapiens, PC-9, 72 h): 19.3 ± 6.28 µM
IC50 (A549 cells; Homo sapiens, A549, 72 h): 22.4 ± 14.4 µM
IC50 (H460 cells; Homo sapiens, NCI-H460, 72 h): 7.31 ± 2.56 µM
IC50 (CL100 cells; Homo sapiens, 72 h): 4.3 ± 3.87 µM
IC50 (H1650 cells; Homo sapiens, NCI-H1650, 72 h): 32.5 ± 17.6 µM
IC50 (CL141T cells; Homo sapiens, 72 h): 23.3 ± 3.34 µM
Structure (SMILES): COc1cc([C@@H]2c3cc4c(cc3[C@@H](O[C@@H]3O[C@@H]5CO[C@@H](C)O[C@H]5[C@H](O)[C@H]3O)[C@H]3COC(=O)[C@H]23)OCO4)cc(OC)c1O [Etoposide]
resistance factor of PC9/gef B4 to PC9 cells (PC9/gef B4 cells): 1.90
IC50 (CL1-5 cells; Homo sapiens, CL1-5, 72 h): 12.6 ± 3.93 µM

Structure (SMILES): COc1cc2ncnc(Nc3ccc(F)c(Cl)c3)c2cc1OCCCN1CCOCC1 [Gefitinib, reference compound]
suppression of xenograft tumor growth (H1650 xenograft): ~51%
suppression of xenograft tumor growth (H1975 xenograft): ~1%
suppression of xenograft tumor growth (PC9 xenograft): approximately 36%
orthotopic growth of H1650-Luc cells (H1650-Luc cells): resistant to gefitinib treatment alone
suppression of xenograft tumor growth (PC9/gef B4 xenograft): ~49%

IC50 (H1975 cells; Homo sapiens, NCI-H1975, 72 h): 36.8 ± 14.4 µM
IC50 (H1299 cells; Homo sapiens, NCI-H1299, 72 h): 24.5 ± 1.85 µM
IC50 (PC9 cells; Homo sapiens, PC-9, 72 h): 11.2 ± 1.97 µM
IC50 (A549 cells; Homo sapiens, A549, 72 h): 9.29 ± 3.31 µM
IC50 (H460 cells; Homo sapiens, NCI-H460, 72 h): 4.18 ± 1.29 µM
IC50 (H1650 cells; Homo sapiens, NCI-H1650, 72 h): 17.1 ± 4.2 µM
Structure (SMILES): CCc1c2c(nc3ccc(OC(=O)N4CCC(N5CCCCC5)CC4)cc13)-c1cc3c(c(=O)n1C2)COC(=O)[C@]3(O)CC [Irinotecan]

Structure (SMILES): CC[C@]1(O)C[C@H]2CN(CCc3c([nH]c4ccccc34)[C@@](C(=O)OC)(c3cc4c(cc3OC)N(C=O)[C@H]3[C@@](O)(C(=O)OC)[C@H](OC(C)=O)[C@]5(CC)C=CCN6CC[C@]43[C@@H]65)C2)C1 [Vincristine, reference compound]
IC50 (CCRF-CEM): 0.00223 ± 0.00019 µM
IC50 (KB/vin10; Homo sapiens, KB-VIN10): 0.51 ± 0.17 µM
resistance factor (KB/vin10; KB/vin10 vs KB): 236.1 x
IC50 (CCRF/VBL): 2.13 ± 0.249 µM
resistance factor (CCRF/VBL; CCRF/VBL vs CCRF-CEM): 954.3 x
IC50 (KB): 0.00216 ± 0.00025 µM
